# Experimental data as given in patent US11458123B2 (Arvinas, Inc., priority 2016, dated 2022).
# System: tau protein
# Assay: Tau protein in vitro degradation assay (Western blot, Tau-13 antibody)
# Assay type: cell-based, human
# Settings: SK-N-SH cells; 72 hours of incubation; tested at 300 nM, 100 nM, 33 nM and 11 nM; Western blot, Tau-13 antibody
# Method: Tau Protein In Vitro Degradation Assay
# To determine effect of PROTACs on tau protein degradation SK-N-SH cells were seeded in a 24-well tissue culture-treated plate for at least 18-hours prior to compound addition. Tau PROTACs were evaluated for tau degradation by lysing the cells in lysis buffer with protease inhibitors following a 72-hour incubation with tau PROTACs at 1000 nM, 300 nM and 100 nM for Table 1 and 300 nM, 100 nM, 33 nM and 11 nM for Table 2. Cell lysates were run on standard SDS-PAGE gels, and tau levels were detected by Western blotting using Tau-13 antibody from Abcam (Cambridge, UK) that binds to all forms of human tau.
SMILES,Degradation activity* (highest amount of degradation observed at any dosage; tau protein remaining),Degradation activity (tau protein remaining; highest amount of degradation observed at any dosage)
"O=C1CCC(N2C(=O)c3ccc(OCCCCCN4CCN(CCO[C@H]5C[C@H](Oc6ccc(-c7ccc8c(c7)[nH]c7ccncc78)cn6)C5)CC4)cc3C2=O)C(=O)N1 (some centres unmarked) [Compound 59, 5-((5-(4-(2-((1r,3r)-3-((5-(5H-pyrido[4,3-b]indol-7-yl)pyridin-2-yl)oxy)cyclobutoxy)ethyl)piperazin-1-yl)pentyl)oxy)-2-(2,6-dioxopiperidin-3-yl)isoindoline-1,3-dione]",C (>80% tau protein remaining after 72 hours of incubation with the test compound),
"Cn1c2ccncc2c2ccc(-c3ccc(O[C@H]4C[C@H](OC5CCN(CCCCCOc6ccc7c(c6)C(=O)N(C6CCC(=O)NC6=O)C7=O)CC5)C4)nc3)cc21 (some centres unmarked) [Compound 82, 2-(2,6-dioxopiperidin-3-yl)-5-((5-(4-((1r,3r)-3-((5-(5-methyl-5H-pyrido[4,3-b]indol-7-yl)pyridin-2-yl)oxy)cyclobutoxy)piperidin-1-yl)pentyl)oxy)isoindoline-1,3-dione]",C (>80% tau protein remaining after 72 hours of incubation with the test compound),
"Cn1c2ccncc2c2ccc(-c3cnc(O[C@H]4C[C@H](Oc5ccc(C#CCOC6CN(c7ccc8c(c7)C(=O)N(C7CCC(=O)NC7=O)C8=O)C6)nc5)C4)c(C(F)(F)F)c3)cc21 (some centres unmarked) [Compound 118, 2-(2,6-dioxopiperidin-3-yl)-5-(3-((3-(5-((1r,3r)-3-((5-(5-methyl-5H-pyrido[4,3-b]indol-7-yl)-3-(trifluoromethyl)pyridin-2-yl)oxy)cyclobutoxy)pyridin-2-yl)prop-2-yn-1-yl)oxy)azetidin-1-yl)isoindoline-1,3-dione]",C (>80% tau protein remaining after 72 hours of incubation with the test compound),
"Cn1c2ccncc2c2ccc(-c3cnc(OCCOCCOCCOCCOCCOc4ccc5c(c4)C(=O)N(C4CCC(=O)NC4=O)C5=O)cc3Cl)cc21 (centres unmarked) [Compound 113, 5-((14-((4-chloro-5-(5-methyl-5H-pyrido[4,3-b]indol-7-yl)pyridin-2-yl)oxy)-3,6,9,12-tetraoxatetradecyl)oxy)-2-(2,6-dioxopiperidin-3-yl)isoindoline-1,3-dione]",C (>80% tau protein remaining after 72 hours of incubation with the test compound),
"Cn1c2ccncc2c2ccc(-c3ccc(O[C@H]4C[C@H](Oc5cccc(OCCCCCCOc6ccc7c(c6)C(=O)N(C6CCC(=O)NC6=O)C7=O)c5)C4)nc3)cc21 (some centres unmarked) [Compound 84, 2-(2,6-dioxopiperidin-3-yl)-5-((6-(3-((1r,3r)-3-((5-(5-methyl-5H-pyrido[4,3-b]indol-7-yl)pyridin-2-yl)oxy)cyclobutoxy)phenoxy)hexyl)oxy)isoindoline-1,3-dione]",C (>80% tau protein remaining after 72 hours of incubation with the test compound),
"O=C1CCC(N2C(=O)c3c(F)c(F)c(OCCOCCOCCOCCOCCOc4ccc(-c5ccc6c(c5)[nH]c5ccncc56)cn4)c(F)c3C2=O)C(=O)N1 (centres unmarked) [Compound 72, 5-((14-((5-(5H-pyrido[4,3-b]indol-7-yl)pyridin-2-yl)oxy)-3,6,9,12-tetraoxatetradecyl)oxy)-2-(2,6-dioxopiperidin-3-yl)-4,6,7-trifluoroisoindoline-1,3-dione]",C (>80% tau protein remaining after 72 hours of incubation with the test compound),
"Cn1c2ccncc2c2ccc(-c3ccc(OC4CN(C(=O)C56CC(CCCCCCCOc7ccc8c(c7)C(=O)N(C7CCC(=O)NC7=O)C8=O)(C5)C6)C4)nc3)cc21 (centres unmarked) [Compound 184, 2-(2,6-dioxopiperidin-3-yl)-5-((7-(3-(3-((5-(5-methyl-5H-pyrido[4,3-b]indol-7-yl)pyridin-2-yl)oxy)azetidine-1-carbonyl)bicyclo[1.1.1]pentan-1-yl)heptyl)oxy)isoindoline-1,3-dione]",,A (≤50% tau protein remaining after 72 hours of incubation with the test compound)
"Cn1c2ccncc2c2ccc(-c3ccc(OC4CC5(C4)CN(CCCCOCCCCOc4ccc6c(c4)C(=O)N(C4CCC(=O)NC4=O)C6=O)C5)nc3)cc21 (centres unmarked) [Compound 107, 2-(2,6-dioxopiperidin-3-yl)-5-(4-(4-(6-((5-(5-methyl-5H-pyrido[4,3-b]indol-7-yl)pyridin-2-yl)oxy)-2-azaspiro[3.3]heptan-2-yl)butoxy)butoxy)isoindoline-1,3-dione]",C (>80% tau protein remaining after 72 hours of incubation with the test compound),
"Cn1c2ccncc2c2ccc(-c3ccc(O[C@H]4C[C@H](Oc5ccc(CCCCCCOc6ccc7c(c6)C(=O)N(C6CCC(=O)NC6=O)C7=O)nn5)C4)nc3)cc21 (some centres unmarked) [Compound 149, 2-(2,6-dioxopiperidin-3-yl)-5-((6-(6-((1r,3r)-3-((5-(5-methyl-5H-pyrido[4,3-b]indol-7-yl)pyridin-2-yl)oxy)cyclobutoxy)pyridazin-3-yl)hexyl)oxy)isoindoline-1,3-dione]",B (≤80% and >50% tau protein remaining after 72 hours of incubation with the test compound),
"Cn1c2ccncc2c2ccc(-c3ccc(O[C@H]4C[C@H](OCCCCCCCCN5CCN(c6ccc7c(c6)C(=O)N(C6CCC(=O)NC6=O)C7=O)CC5)C4)nc3)cc21 (some centres unmarked) [Compound 91, 2-(2,6-dioxopiperidin-3-yl)-5-(4-(8-((1r,3r)-3-((5-(5-methyl-5H-pyrido[4,3-b]indol-7-yl)pyridin-2-yl)oxy)cyclobutoxy)octyl)piperazin-1-yl)isoindoline-1,3-dione]",C (>80% tau protein remaining after 72 hours of incubation with the test compound),
"Cc1ncsc1-c1ccc([C@H](C)NC(=O)[C@@H]2C[C@@H](O)CN2C(=O)[C@@H](NC(=O)COCCOCCOCCOCCOCCOc2ccc(-c3ccc4c(c3)[nH]c3ccncc34)cn2)C(C)(C)C)cc1 [Compound 121, (2S,4R)-1-((S)-20-((5-(5H-pyrido[4,3-b]indol-7-yl)pyridin-2-yl)oxy)-2-(tert-butyl)-4-oxo-6,9,12,15,18-pentaoxa-3-azaicosanoyl)-4-hydroxy-N—((S)-1-(4-(4-methylthiazol-5-yl)phenyl)ethyl)pyrrolidine-2-carboxamide]",B (≤80% and >50% tau protein remaining after 72 hours of incubation with the test compound),
"O=C1CCC(N2C(=O)c3ccc(OCCCCCC(=O)N4CCC(O[C@H]5C[C@H](Oc6ccc(-c7ccc8c(c7)[nH]c7ccncc78)cn6)C5)CC4)cc3C2=O)C(=O)N1 (some centres unmarked) [Compound 164, 5-(6-(4-((1r,3r)-3-(5-(5H-pyrido[4,3-b]indol-7-yl)pyridin-2-yloxy)cyclobutoxy)piperidin-1-yl)-6-oxohexyloxy)-2-(2,6-dioxopiperidin-3-yl)isoindoline-1,3-dione]",C (>80% tau protein remaining after 72 hours of incubation with the test compound),

# Same assay, conditions: SK-N-SH cells; 72 hours of incubation; tested at 1000 nM, 300 nM and 100 nM
row,SMILES,"Activity* (highest amount of degradation observed at any dosage, as tau protein remaining)"
1,"O=C1CCC(N2C(=O)c3cccc(NCCOCCOCCOCCOCCOc4ccc(-c5ccc6c(c5)[nH]c5ccncc56)cn4)c3C2=O)C(=O)N1 (centres unmarked) [Compound 4, 4-((14-((5-(5H-pyrido[4,3-b]indol-7-yl)pyridin-2-yl)oxy)-3,6,9,12-tetraoxatetradecyl)amino)-2-(2,6-dioxopiperidin-3-yl)isoindoline-1,3-dione]",A (≤50% tau protein remaining after 72 hours of incubation with the test compound)
2,"Cc1ncsc1-c1ccc(CNC(=O)[C@@H]2C[C@@H](O)CN2C(=O)[C@@H](NC(=O)COCCOCCOCCOCCN2CCN(c3ccn4c(n3)nc3ccccc34)CC2)C(C)(C)C)cc1 [Compound 23, (2S,4R)-1-((5)-17-(4-(benzo[4,5]imidazo[1,2-a]pyrimidin-2-yl)piperazin-1-yl)-2-(tert-butyl)-4-oxo-6,9,12,15-tetraoxa-3-azaheptadecanoyl)-4-hydroxy-N-(4-(4-methylthiazol-5-yl)benzyl)pyrrolidine-2-carboxamide]",C (>80% tau protein remaining after 72 hours of incubation with the test compound)
3,Cc1ncsc1-c1ccc(CNC(=O)[C@@H]2C[C@@H](O)CN2C(=O)[C@@H](NC(=O)COCCOCCOCC(=O)N2CCN(c3ccn4c(n3)nc3ccccc34)CC2)C(C)(C)C)cc1 [Compound 10],C (>80% tau protein remaining after 72 hours of incubation with the test compound)
4,"Cc1ncsc1-c1ccc(CNC(=O)[C@@H]2C[C@@H](O)CN2C(=O)[C@@H](NC(=O)COCCOCCOCCN2CCN(c3ccn4c(n3)nc3ccccc34)CC2)C(C)(C)C)cc1 [Compound 7, (2S,4R)-1-((S)-14-(4-(benzo[4,5]imidazo[1,2-a]pyrimidin-2-yl)piperazin-1-yl)-2-(tert-butyl)-4-oxo-6,9,12-trioxa-3-azatetradecanoyl)-4-hydroxy-N-(4-(4-methylthiazol-5-yl)benzyl)pyrrolidine-2-carboxamide]",C (>80% tau protein remaining after 72 hours of incubation with the test compound)
5,"Cc1ncoc1-c1ccc(CNC(=O)[C@@H]2C[C@@H](O)CN2C(=O)[C@@H](NC(=O)COCCOCCOCCN2CCN(c3ccn4c(n3)nc3ccccc34)CC2)C(C)(C)C)cc1 [Compound 11, (2S,4R)-1-((S)-14-(4-(benzo[4,5]imidazo[1,2-a]pyrimidin-2-yl)piperazin-1-yl)-2-(tert-butyl)-4-oxo-6,9,12-trioxa-3-azatetradecanoyl)-4-hydroxy-N-(4-(4-methyloxazol-5-yl)benzyl)pyrrolidine-2-carboxamide]",C (>80% tau protein remaining after 72 hours of incubation with the test compound)
